Experiments:
acetylcholoinesterase = acetylcholoinesterase (Homo sapiens, UniProt P22303); conditions: in humans, recent study; cited from earlier work
[1] = in vivo; cited from earlier work
Aedes aegypti [2] = conditions: 25 μmol/cm^2, Katritzky data; cited from earlier work
Aedes aegypti [3] = experiment: protection time assay for mosquito repellency; type: in vivo; conditions: standardized to 25 μmol/cm^2; assigned, not measured
Description: In two recent studies, 34 N-acylpiperdine and 38 carboxamide mosquito repellent candidates were synthesized and compared for their effectiveness. […] The mode of repellency for all of these compounds is unknown. As the N-acylpiperdines and some of the carboxamides are larger and likely have a lower vapor pressure than DEET, it is possible that the increased protection times of these compounds is due to a slower evaporation rate.
As these odors were tested using different approaches, a single unit of measure was needed to standardize them for training. Since the largest proportion of odors was measured in protection time, all odors were converted into this single standard of protection time in days to match with the Katritzky data at a concentration of 25 μmol/cm^2. Picaridin, which is believed to have a similar protection to DEET, was given the same protection time as DEET (17.5 days). […] While this is a very rough approximation, it is sufficiently accurate for training.

[4] = system: trichoid sensillum housed odor receptor, which is also activated by DEET; conditions: compared with DEET; cited from earlier work
insects = conditions: in vivo; cited from earlier work

Sequence of acetylcholoinesterase (P22303 32-614): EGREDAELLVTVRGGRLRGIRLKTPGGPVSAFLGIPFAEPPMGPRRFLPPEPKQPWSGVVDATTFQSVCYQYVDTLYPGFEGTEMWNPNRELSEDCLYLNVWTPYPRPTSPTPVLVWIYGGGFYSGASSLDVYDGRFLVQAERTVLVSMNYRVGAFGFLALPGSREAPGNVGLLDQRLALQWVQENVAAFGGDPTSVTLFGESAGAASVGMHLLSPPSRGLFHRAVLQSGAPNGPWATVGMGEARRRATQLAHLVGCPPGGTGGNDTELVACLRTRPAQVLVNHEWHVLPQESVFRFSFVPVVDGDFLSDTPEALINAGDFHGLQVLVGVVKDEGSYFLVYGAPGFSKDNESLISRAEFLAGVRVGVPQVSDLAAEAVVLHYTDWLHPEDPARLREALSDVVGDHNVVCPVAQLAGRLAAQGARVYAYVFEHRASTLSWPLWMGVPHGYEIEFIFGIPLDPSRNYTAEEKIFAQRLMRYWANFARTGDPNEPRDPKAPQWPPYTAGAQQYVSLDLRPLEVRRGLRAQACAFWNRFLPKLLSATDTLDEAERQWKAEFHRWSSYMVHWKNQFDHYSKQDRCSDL

Structure (SMILES) | protection time given for training (same as DEET, very rough approximation) (Aedes aegypti [3]) [days] | activation of DEET-activated odor receptor / DEET receptive neuron [4] | also measured
CCN(CC)C(=O)c1cccc(C)c1 [DEET, N,N-diethyl-3-methylbenzamide] |  |  | inhibition of acetylcholinesterase (acetylcholoinesterase): inhibit; irritation [1]: act as an irritant; protection time (Aedes aegypti [2]): 17.5 days
C=CC(C)(O)CCC=C(C)C (stereo not shown) [linalool] | 17.5 | more strongly than DEET | 
CC1C(=O)CC2(C(C)C)CC12 (stereo not drawn) [beta-thujone] | 17.5 |  | 
CC(C)[C@]12CC(=O)[C@H](C)[C@H]1C2 [thujone] |  | more strongly than DEET | 
CCC(C)OC(=O)N1CCCCC1CCO (stereo not shown) [Icaridin] | 17.5 |  | irritation [1]: less irritating than DEET; effectiveness at repelling insects compared with DEET (insects): as effective as DEET
CC(C)[C@]12CC(=O)[C@H](C)[C@H]1C2 [alpha-thujone] | 17.5 |  | 
CC12CCC(CC1)C(C)(C)O2 [Eucalyptol] | 17.5 | more strongly than DEET | 

— US10292396B2, “Methods for assessing repellant quality of organic materials and methods and compositions for repelling arthropods” (priority 2011, dated 2019)
